The first series is described as follows: in vitro. The note with it: human, hela cells, % viability.
As for `c1csc(-c2nn3c(Cn4nnc5ccccc54)nnc3s2)c1` [CBK268204], the viability at 28.5 h, 10 µM was determined as 87.7%.

With `COc1cc(NC(=O)Cc2cccc3ccccc23)c(C(=O)O)cc1OC` [CBK268206], the viability at 28.5 h, 10 µM amounted to 99.9%.

Consider `CN1CCN(CC(=O)Nc2sc3c(c2C(=O)NCc2ccccc2)CCCC3)CC1` [CBK268207], for which the viability at 28.5 h, 10 µM amounted to 102%.

Take `Cc1cc(NC(=O)c2nn3c(C(F)(F)F)cc(-c4ccccc4)nc3c2Cl)nn1CC(=O)N1CCOCC1` [CBK268209]: the viability at 28.5 h, 10 µM turned out to be 105%.

With `Cc1ccc(S(=O)(=O)NCCOc2ccccc2)c(C)c1NS(C)(=O)=O` [CBK268210], the viability at 28.5 h, 10 µM came out at 92.9%.

Turning to `O=C(CSc1ncn(-c2ccccc2)n1)Nc1ccc2[nH]c(=O)[nH]c2c1` [CBK268212], the viability at 28.5 h, 10 µM came out at 106%.

As to `Cc1cc2c(N3CCN(Cc4nc5ccccc5[nH]4)CC3)ncnc2s1` [CBK268213C], the viability at 28.5 h, 10 µM was found to be 101%.

For the compound `Cc1ccc(NS(=O)(=O)c2cc(C(=O)Nc3cccc(N(C)S(C)(=O)=O)c3)ccc2C)c(C)c1` [CBK268220], the viability at 28.5 h, 10 µM was 92.7%.

Regarding `CCN1CCN(C(=O)CN(c2ccccc2)S(=O)(=O)N(C)C)CC1` [CBK268222], the viability at 28.5 h, 10 µM was found to be 113%.

As to `CCN1CCN(C(=O)c2ccc(C)c(S(=O)(=O)Nc3cccc(C)c3)c2)CC1` [CBK268226], the viability at 28.5 h, 10 µM was 109%.

Take `O=C(Cc1cc(C(=O)O)c2ccccc2n1)Nc1ccccc1` [CBK268227]: the viability at 28.5 h, 10 µM came to 96.3%.

Turning to `O=C(Cc1ccc(Br)cc1)Nc1cc(C(=O)O)cc(C(=O)O)c1` [CBK268228], the viability at 28.5 h, 10 µM was determined as 88.8%.

Consider `Cc1ccc(Cl)cc1N1CCN(C(=O)COc2ccc(S(=O)(=O)Nc3ccc(F)cc3)cc2)CC1` [CBK268229], for which the viability at 28.5 h, 10 µM stood at 92.1%.

For the compound `COc1ccc(S(=O)(=O)N2CCCC(C(=O)NCc3ccc4c(c3)OCO4)C2)cc1Cl` (stereo not shown) [CBK268230], the viability at 28.5 h, 10 µM was 89.1%.

As to `c1ccc(C2=Nn3c(Cn4nnc5ccccc54)nnc3SC2)cc1` [CBK268232], the viability at 28.5 h, 10 µM was 91.7%.

Consider `Nn1c(Cn2nnc3ccccc32)n[nH]c1=S` [CBK268233], for which the viability at 28.5 h, 10 µM is 111%.

`CN(C)CCn1c(C(=O)O)cc2ccccc21` [CBK268234C]: the viability at 28.5 h, 10 µM turned out to be 110%.

Turning to `c1nc(NCCCN2CCOCC2)c2c3c(sc2n1)CCCCC3` [CBK268236], the viability at 28.5 h, 10 µM worked out at 91.2%.

In the case of `O=C1CCCN1c1ccc(S(=O)(=O)N2CCN(c3ccccn3)CC2)cc1` [CBK268237], the viability at 28.5 h, 10 µM was 84.5%.

Consider `Cc1cccc(-c2noc(CCC(=O)NCC3CCCO3)n2)c1` (stereo not shown) [CBK268241], for which the viability at 28.5 h, 10 µM is 118%.

As for `Cc1cc(=O)[nH]c(SCCC(=O)O)n1` [CBK268242], the viability at 28.5 h, 10 µM was found to be 106%.

`O=C(COc1ccc(S(=O)(=O)N2CCCC2)cc1Cl)NCC1CCCO1` (stereo not shown) [CBK268243]: the viability at 28.5 h, 10 µM was 86.6%.

As to `O=S(=O)(NCC(c1ccccc1)n1cc(-c2ccccc2)nn1)c1ccccc1` (stereo not shown) [CBK268244], the viability at 28.5 h, 10 µM was determined as 85.2%.

With `COc1ccc(-c2noc(CSc3nnc(-c4ccncc4)n3C)n2)cc1` [CBK268245], the viability at 28.5 h, 10 µM was 96.8%.

As for `O=C(CSc1nc2ccccc2c(=O)[nH]1)Nc1ccc(Cl)c(C(=O)O)c1` [CBK268246], the viability at 28.5 h, 10 µM was determined as 103%.

Turning to `CC(=O)NCCc1nc2ccc(NC(=O)Cn3nc(C)c4ccccc4c3=O)cc2n1C` [CBK268249], the viability at 28.5 h, 10 µM was found to be 111%.

`Brc1cccc(CSc2nnc(COc3ccccc3)n2Cc2ccccc2)c1` [CBK268250]: the viability at 28.5 h, 10 µM was 113%.

On to `O=C(COc1ccc(NS(=O)(=O)c2ccc3oc4cc([N+](=O)[O-])ccc4c3c2)cc1)N1CCOCC1` [CBK268252], for which the viability at 28.5 h, 10 µM worked out at 100%.

Turning to `CCN(CC)S(=O)(=O)c1ccc(Nc2nc3ccc(Cl)cc3n3cnnc23)cc1` [CBK268259], the viability at 28.5 h, 10 µM stood at 87.6%.

Turning to `O=C(CSc1ncn(-c2ccccc2)n1)Nc1cc(Cl)cc(Cl)c1` [CBK268261], the viability at 28.5 h, 10 µM amounted to 92%.

Consider `Cn1c(CN2CCN(C(=O)NC3CCCCC3)CC2)nc2cc([N+](=O)[O-])ccc21` [CBK268266], for which the viability at 28.5 h, 10 µM stood at 97.1%.

Consider `C[S+]([O-])CCC(NS(=O)(=O)c1ccccc1)C(=O)O` (stereo not shown) [CBK268267], for which the viability at 28.5 h, 10 µM is 93.2%.

On to `Cc1cc(/C=C(/C#N)c2cccc(F)c2)c(C)n1-c1ccc(S(N)(=O)=O)cc1` [CBK268268], for which the viability at 28.5 h, 10 µM amounted to 99.9%.

On to `O=[N+]([O-])c1nn(-c2ccc(Cl)cc2)[n+]([O-])c1NCc1ccccn1` [CBK268270], for which the viability at 28.5 h, 10 µM is 96.6%.

Regarding `c1ccc(-c2nn3c(Cn4nnc5ccccc54)nnc3s2)cc1` [CBK268271], the viability at 28.5 h, 10 µM was determined as 106%.

Turning to `Cc1cc(S(=O)(=O)NCc2ccccc2)ccc1OCC(=O)N1CCN(C)CC1` [CBK268274], the viability at 28.5 h, 10 µM amounted to 86.4%.

For the compound `Cn1cnnc1SCC(C)(C)NS(=O)(=O)c1ccccc1` [CBK268276], the viability at 28.5 h, 10 µM was 96.4%.

For the compound `O=C(NCCSCc1ccco1)Nc1cccc(Cl)c1` [CBK268277], the viability at 28.5 h, 10 µM was found to be 99.2%.

In the case of `CCOc1ccc(NC(=O)CSc2nc3nc(C)cc(C)n3n2)cc1` [CBK268278], the viability at 28.5 h, 10 µM worked out at 107%.

As to `CC(C)(CSc1ncccn1)NS(=O)(=O)c1ccccc1` [CBK268282], the viability at 28.5 h, 10 µM came out at 88.3%.

`O=C(O)c1ccc2c(c1)C(=O)N(c1nc(-c3cccnc3)n[nH]1)C2=O` [CBK268284]: the viability at 28.5 h, 10 µM came out at 100%.

With `O=C(Cc1cccc2ccccc12)Nc1ccc(Br)cc1C(=O)O` [CBK268286], the viability at 28.5 h, 10 µM was 99.2%.

As for `CC(C)(Oc1ccc(Br)cc1)C(=O)NCCOc1ccccc1` [CBK268287], the viability at 28.5 h, 10 µM was determined as 114%.

Regarding `CS(=O)(=O)Nc1ccc(C(=O)Nc2ccc(S(=O)(=O)N3CCCCCC3)cc2)cc1` [CBK268288], the viability at 28.5 h, 10 µM was 107%.

As for `O=C(CSc1nnc(Cc2cccs2)n1-c1ccccc1)c1c[nH]c2ccccc12` [CBK268290], the viability at 28.5 h, 10 µM is 88%.

`Cc1ccc(-c2nc3ncccc3o2)cc1NC(=S)NC(=O)c1ccc(-c2cccc([N+](=O)[O-])c2)o1` [CBK268294]: the viability at 28.5 h, 10 µM amounted to 102%.

For the compound `Cc1ccc(-n2cnnn2)c(S(=O)(=O)N2CCOCC2)c1` [CBK268297], the viability at 28.5 h, 10 µM was 102%.

Consider `O=C(CSc1nnc(Nc2ccccc2)n1-c1ccccc1)Nc1ccc2c(c1)COC2=O` [CBK268298], for which the viability at 28.5 h, 10 µM turned out to be 105%.

For the compound `CCc1cc2c(=O)c(-c3nc(C)cs3)c(C)oc2cc1OCc1ccc([N+](=O)[O-])cc1` [CBK268305], the viability at 28.5 h, 10 µM was 101%.

As for `O=S(=O)(NCc1ccc2c(c1)OCO2)c1ccc2c(c1)oc1ccccc12` [CBK268308], the viability at 28.5 h, 10 µM was 104%.

On to `CCCn1c(Nc2nc3ccccc3n2C)nc2ccccc21` [CBK268310], for which the viability at 28.5 h, 10 µM was determined as 85.7%.

Regarding `COc1cc(NC(=O)c2cc3nc(-c4cccs4)cc(C(F)(F)Cl)n3n2)c(C(C)=O)cc1OC` [CBK268312], the viability at 28.5 h, 10 µM was 100%.

On to `O=C(NC(C(=O)O)c1ccccc1)NC12CC3CC(CC(C3)C1)C2` (stereo not shown) [CBK268313], for which the viability at 28.5 h, 10 µM is 109%.

As to `O=[N+]([O-])c1nn(-c2ccc3c(c2)OCCO3)[n+]([O-])c1NCCN1CCN(c2ccccc2F)CC1` [CBK268314], the viability at 28.5 h, 10 µM was 109%.

Consider `CCOc1ccc(-n2c(SCc3nc(-c4ccc(C)cc4)no3)nnc2-c2ccncc2)cc1` [CBK268315], for which the viability at 28.5 h, 10 µM was 98.3%.

For `CCc1ccc2occ(CC(=O)Nc3ccc(C(=O)OC)cc3)c2c1` [CBK268318], the viability at 28.5 h, 10 µM was 105%.

Take `Clc1ccc(-c2nn3c4cc(N5CCNCC5)ccc4nc3c3ccccc23)cc1` [CBK268319]: the viability at 28.5 h, 10 µM amounted to 102%.

As to `O=C(CSc1nc(Nc2ccccc2)nc(N2CCOCC2)n1)Nc1ccc2c(c1)OCO2` [CBK268320], the viability at 28.5 h, 10 µM was 96.5%.

Take `Cn1c(CN2CCN(S(=O)(=O)c3ccccc3)CC2)nc2cc([N+](=O)[O-])ccc21` [CBK268321]: the viability at 28.5 h, 10 µM amounted to 102%.

For the compound `CC(CO)(CO)NCc1ccc(-c2ccccc2)cc1` [CBK268325C], the viability at 28.5 h, 10 µM was determined as 78.9%.

As to `O=C(COc1ccc(S(=O)(=O)N2CCCCC2)cc1)NCc1cccnc1` [CBK268328], the viability at 28.5 h, 10 µM was 97.6%.

Turning to `COc1ccccc1CC(=O)Nc1ccc(-c2nnc(-c3ccc(C)cc3)o2)cc1` [CBK268329], the viability at 28.5 h, 10 µM amounted to 105%.

Turning to `c1ccc(CCc2nn3c(Cn4cnc5ccccc54)nnc3s2)cc1` [CBK268332], the viability at 28.5 h, 10 µM was determined as 84.2%.

Regarding `COc1ccc(-c2nnc(SCC(=O)c3ccc(C)o3)o2)cc1` [CBK268334], the viability at 28.5 h, 10 µM was found to be 88%.

Take `O=C(NC(=S)N1CCN(c2ccc([N+](=O)[O-])c(N3CCOCC3)c2)CC1)c1cc2ccccc2o1` [CBK268335]: the viability at 28.5 h, 10 µM was 109%.

For `Cc1ccc(NC(=O)Cn2nc(C)c([N+](=O)[O-])c2C)cc1Cl` [CBK268336], the viability at 28.5 h, 10 µM was found to be 98.5%.

In the case of `Brc1ccc(OCc2ccccc2)c(CNCc2ccccn2)c1` [CBK268340C], the viability at 28.5 h, 10 µM is 99.9%.

Regarding `Cc1ccc(-c2nn3c(C)nnc3c3ccccc23)cc1S(N)(=O)=O` [CBK268342], the viability at 28.5 h, 10 µM came to 97.3%.

For the compound `COc1cccc(NC(=O)CSc2nnc(-c3ccccc3O)n2-c2ccccc2)c1` [CBK268343], the viability at 28.5 h, 10 µM was 108%.

On to `COCCN1C(=O)c2ccc(C(=O)Nc3ccc(O)c(C(=O)O)c3)cc2C1=O` [CBK268344], for which the viability at 28.5 h, 10 µM was 102%.

As for `O=C(CSc1nnc(-c2cc(Br)ccc2O)n1-c1ccccc1)N1CCc2ccccc21` [CBK268346], the viability at 28.5 h, 10 µM was found to be 105%.

Turning to `COc1ccc(-c2nnc(SCC(=O)O)n2-c2cccc(C(F)(F)F)c2)cc1OC` [CBK268347], the viability at 28.5 h, 10 µM came out at 88.7%.

Take `O=C(COc1ccc(S(=O)(=O)N2CCOCC2)cc1)N1CCc2ccccc2C1` [CBK268350]: the viability at 28.5 h, 10 µM amounted to 92.1%.

On to `O=C(Nc1cccc(S(=O)(=O)N2CCCC2)c1)c1nc[nH]n1` [CBK268353], for which the viability at 28.5 h, 10 µM turned out to be 103%.

In the case of `CC(C)C(CCC(=O)Nc1ccccc1[N+](=O)[O-])C(=O)O` (stereo not shown) [CBK268356], the viability at 28.5 h, 10 µM was 86.3%.

The series is the same for the next values; noted with them: human, hela cells, % viability, bulk resorufin, single well.
In the case of `CC(C)NC(=O)Cn1cc(C(=O)COc2ccccc2)c2ccccc21` [CBK268317], the viability at 28.5 h, 10 µM was determined as 82.6%.

What is called viability is a read-out of living cells in per cent, often relative to untreated cells.

These data come from article PMC12040169 (PLOS Biology, 2025).
